# B1: domvanalimab (antibody, chains of the INN, looked up, V domains shown)
# VH: EVQLVESGGGLVQPGGSLRLSCAASGFTFSNFGMHWVRQAPGKGLEWVAFISSGSSSIYYADTVKGRFTISRDNAKNSLYLQMNSLRAEDTAVYYCARMRLDYYAMDYWGQGTMVTVSS
# VL: DIQMTQSPSSLSASVGDRVTITCRASKSISKYLAWYQQKPGKAPKLLIYSGSTLQSGVPSRFSGSGSGTDFTLTISSLQPEDFATYYCQQHNEYPWTFGGGTKVEIK
# notes: Fc-silent anti-TIGIT antibody with engineered IgG1 Fc
# What was measured:
# [1] = system: first line (1L) metastatic NSCLC; test: Real-world progression free survival analysis by CD155 gene expression, de-identified health records; assay type: in vivo, human
# Text: This example retrospectively evaluated the predictive value of CD155 expression for a clinical outcome using real-world data. […] Real-world progression free survival (rwPFS) is defined in this study as the time from treatment initiation until the first occurrence of progressive disease (PD) or death up to the end date of the same line of therapy. […] Otherwise, patients were censored at the last known follow up time. rwPFS is right censored at 36 months. The analysis was performed using de-identified health records of first line (1L) metastatic NSCLC patients treated with chemotherapy only, treated with pembrolizumab monotherapy, or treated with chemotherapy and pembrolizumab. A filter was applied to select for records where biopsies were obtained ≤12 months prior to the first dose of treatment. Records were excluded if the patient had EGF or ALK alterations.
# The health records for each patient included information such as sex, race, smoking status, biopsy site, stage at time of diagnosis, subtype of lung cancer (adenocarcinoma or squamous cell carcinoma), tumor purity, PD-L1 expression, treatment (chemotherapy, pembrolizumab, or chemotherapy+pembrolizumab), clinical outcome, etc., as well as gene expression data for a number of targets (e.g., TIGIT, CD155, CD73). Chemotherapy for adenocarcinomas was cisplatin or carboplatin+pemetrexed. Chemotherapy for squamous cell carcinomas was either carboplatin and paclitaxel or nab-paclitaxel. Gene expression was quantified from RNA-seq data as transcript per million (tpm). Kaplan-Meier models were performed by gene and according to the following breakdowns: NSCLC subtype (all; adenocarcinoma only; squamous cell carcinoma only), PD-L1 expression (all; <1% TPS; 1-49% TPS; ≥50% TPS), and treatment (chemotherapy only, pembrolizumab only, chemotherapy and pembrolizumab). Results presented as Kaplan-Meier (KM) plots splitting high and low gene expressors into different groups, whereby high gene expression was defined as expression equal to or greater than a cut-off value determined by one of several threshold methodologies (e.g., median, 1st tertile (1st third vs last two thirds), 2nd tertile (two thirds vs. last third) and MaxStat (an outcome-oriented method providing a value of a cutpoint that corresponds to the most significant relation with outcome). Cox Proportional-Hazards tests were used to assess the effect of gene expression as a continuous variable, and hazard ratios were provided with each KM plot using the low gene expressor group as a reference.
# MC38 cells [2] = settings: 1 μM, 72 hours
# Protocol: (§1) Lines and error represent the mean±standard deviation (SD) of biological triplicates. […] In FIG. 5B and FIG. 5C, lines and error represent the mean±SD of biological duplicates.
# (§2) For flow cytometry, MC38 cells were plated in supplemented RPMI medium at 1×10^5 cells/well in a 12-well tissue culture plate. For CellTiter-Glo (Promega) analysis, cells were plated in supplemented RPMI medium at 5×10^3 cells/well in a 96-well white flat-bottom tissue culture plate. […] Data were normalized to PBS treated cells. For flow cytometry, cells were harvested using a cell scraper, and transferred into a 96-well round-bottom plate for staining. Cells were washed, incubated with live-dead aqua and anti-mouse CD16/CD32 Fc block at RT followed by cell surface staining with anti-mouse PD-L1 BV711 (clone MIH4, BD Biosciences) and anti-mouse CD155 BUV395 (clone 3F1, BD Biosciences) at 4° C. Cells were washed, fixed with IC fixation buffer (Invitrogen) at RT, washed again, and resuspended in PBS for flow cytometry.
# MC38 tumors = test: Flow cytometry phenotyping of MC38 tumors and tdLN after treatment; assay type: in vivo, mouse; settings: three days after the first OXA exposure
# Protocol: Methods—Mouse tumor-infiltrating lymphocyte and lymph node phenotyping. MC38 tumors were minced with scissors and dissociated with tumor digestion buffer [RPMI 1640 supplemented with 20% FBS, 0.25 mg/mL Collagenase D (Roche), and 100 KUnits/mL Type IV DNase I (Sigma-Aldrich)]. Single-cell tumor suspensions were passed through a 70 μm cell strainer and washed. Inguinal lymph nodes were collected from the same side as the tumor (tumor-draining lymph node, tdLN), minced, passed through a 70 μm cell strainer and washed. A total of 1×10^6 tumor or lymph node cells per well were incubated at room temperature (RT) with live-dead NIR (Invitrogen) and anti-mouse CD16/CD32 Fc block (BD Biosciences). For p15E tetramer staining, cells were washed and incubated with tetramer at RT. Cells were stained for surface and intracellular markers and analyzed by flow cytometry as indicated above.
# In vivo experiments were performed at Arcus Biosciences in accordance with federal, state, and institutional guidelines and were approved by Arcus Biosciences' Institutional Animal Care and Use Committee. Female 6-8 week old C57BL/6J mice were purchased from Charles River Laboratories. Mice were injected subcutaneously on the right flank with 1×10^6 MC38 cells in 100 μL PBS. Once tumors were established (sized indicated in figure legends), mice were randomized into groups based on tumor size distribution. […] The dosing regimens for anti-PD-1 and anti-TIGIT were determined via receptor occupancy (RO) assays using commercially available a competitive anti-TIGIT antibody (clone GIGD7), a non-competitive PD-1 antibody (clone J43) as well as direct detection of both anti-TIGIT and anti-PD-1 via secondary antibody (Jackson Immunoresearch anti-mouse IgG, Fcγ subclass 2a specific). The dosing regimen for FTY720 was determined in naïve C57BL/6 females by examining lymphocyte frequencies and numbers in the blood 24 h after dosing. Tumor volume was monitored with digital calipers and volume was calculated using the formula: (Length×Width^2)/2. […]
# MC38 cells [3] = test: In vitro oxaliplatin treatment of MC38 cells, flow cytometry of PD-L1 and CD155; assay type: cell-based, mouse; settings: dying cells, ≥1 μM, 22 h
# Protocol: as §1, §2
# [4] = biological target: T1, FcγR-IIIA (V158 high-affinity variant) (Homo sapiens, UniProt P08637, F176V); set-up: dose or concentration left out as unconfirmed; settings: cited from earlier work
# T1 construct: expressed in transfected cells
# T1 sequence (P08637 17-254 F176V): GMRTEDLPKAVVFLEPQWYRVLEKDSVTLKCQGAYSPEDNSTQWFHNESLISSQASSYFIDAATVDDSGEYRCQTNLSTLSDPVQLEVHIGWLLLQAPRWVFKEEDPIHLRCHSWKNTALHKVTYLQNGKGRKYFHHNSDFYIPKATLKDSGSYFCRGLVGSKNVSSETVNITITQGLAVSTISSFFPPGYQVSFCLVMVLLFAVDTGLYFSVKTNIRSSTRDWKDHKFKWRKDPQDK
# [5] = system: FcγR isotypes I, IIA, JIB, IIIA, and IIIB; set-up: dose or concentration left out as unconfirmed; settings: compared with wild-type IgG1 control antibody; cited from earlier work
# [6] = system: Jurkat cell line stably overexpressing human TIGIT; settings: increasing concentrations up to 33 nM; cited from earlier work
molecule,measurement,setting,value
pembrolizumab,Median real-world progression-free survival (rwPFS),"[1]; CD155 High, threshold method Median, PD-L1 TPS 1-49%",5.4 mo
same,Median real-world progression-free survival (rwPFS),"[1]; CD155 High, threshold method Median, PD-L1 TPS <1%",13.8 mo
same,Median real-world progression-free survival (rwPFS),"[1]; CD155 High, threshold method Median, PD-L1 TPS All",7.67 mo
same,Median real-world progression-free survival (rwPFS),"[1]; CD155 High, threshold method Median, PD-L1 TPS ≥50%",8.53 mo
same,Median real-world progression-free survival (rwPFS),"[1]; CD155 High, threshold method q33, PD-L1 TPS 1-49%",4.63 mo
same,Median real-world progression-free survival (rwPFS),"[1]; CD155 High, threshold method q33, PD-L1 TPS <1%",8.1 mo
same,Median real-world progression-free survival (rwPFS),"[1]; CD155 High, threshold method q33, PD-L1 TPS All",8.07 mo
same,Median real-world progression-free survival (rwPFS),"[1]; CD155 High, threshold method q33, PD-L1 TPS ≥50%",8.63 mo
same,Median real-world progression-free survival (rwPFS),"[1]; CD155 High, threshold method q67, PD-L1 TPS 1-49%",3.93 mo
same,Median real-world progression-free survival (rwPFS),"[1]; CD155 High, threshold method q67, PD-L1 TPS <1%",13.8 mo
same,Median real-world progression-free survival (rwPFS),"[1]; CD155 High, threshold method q67, PD-L1 TPS All",7.03 mo
same,Median real-world progression-free survival (rwPFS),"[1]; CD155 High, threshold method q67, PD-L1 TPS ≥50%",7.23 mo
same,Median real-world progression-free survival (rwPFS),"[1]; CD155 Low, threshold method Median, PD-L1 TPS 1-49%",6.2 mo
same,Median real-world progression-free survival (rwPFS),"[1]; CD155 Low, threshold method Median, PD-L1 TPS <1%",8.1 mo
same,Median real-world progression-free survival (rwPFS),"[1]; CD155 Low, threshold method Median, PD-L1 TPS All",10.3 mo
same,Median real-world progression-free survival (rwPFS),"[1]; CD155 Low, threshold method Median, PD-L1 TPS ≥50%",14.1 mo
same,Median real-world progression-free survival (rwPFS),"[1]; CD155 Low, threshold method q33, PD-L1 TPS 1-49%",9.67 mo
same,Median real-world progression-free survival (rwPFS),"[1]; CD155 Low, threshold method q33, PD-L1 TPS <1%",8.1 mo
same,Median real-world progression-free survival (rwPFS),"[1]; CD155 Low, threshold method q33, PD-L1 TPS All",13.3 mo
same,Median real-world progression-free survival (rwPFS),"[1]; CD155 Low, threshold method q33, PD-L1 TPS ≥50%",17.1 mo
same,Median real-world progression-free survival (rwPFS),"[1]; CD155 Low, threshold method q67, PD-L1 TPS 1-49%",7.1 mo
same,Median real-world progression-free survival (rwPFS),"[1]; CD155 Low, threshold method q67, PD-L1 TPS <1%",8.1 mo
same,Median real-world progression-free survival (rwPFS),"[1]; CD155 Low, threshold method q67, PD-L1 TPS All",9.67 mo
same,Median real-world progression-free survival (rwPFS),"[1]; CD155 Low, threshold method q67, PD-L1 TPS ≥50%",11.7 mo
"O=C1[O][Pt]2([NH][C@@H]3CCCC[C@H]3[NH]2)[O]C1=O [OXA, oxaliplatin]",cancer cell death,MC38 cells [2],~100%
same,TCF-1 positivity in tumoral CD8+ T cells,MC38 tumors,increase
same,intratumoral monocytes,MC38 tumors,decreases
same,tumor neutrophils,MC38 tumors,increase
same,expression of PD-L1 and CD155 ligands,MC38 cells [3],increased expression
B1,activity in FcγR-IIIA effector reporter bioassay,[4],inactive
same,binding to FcγR isotypes,[5],no significant binding
same,complement dependent cytotoxicity,[6],No cytotoxicity

# Source: patent US20260266828A1, “BIOMARKERS FOR PREDICTING CANCER TREATMENT EFFICACY” (Arcus Biosciences, Inc., priority 2023, published 2026)
